In a compilation of properties of binary mixtures (doi:10.1021/acs.jced.2c00294):

Experiment: xn = mol fraction of the nth substance listed
Settings: 101 kPa

CCCC[N+]1(C)CCCC1.N#C[N-]C#N + CCCC[N+]1(C)CCCC1.O=S(=O)([N-]S(=O)(=O)C(F)(F)F)C(F)(F)F
x2 = 0.5
Settings | electrical conductivity [S/m] | viscosity [mPa·s]
298 K | 0.565 | 51.3
303 K | 0.642 | 36.1
308 K | 0.746 | 32
313 K | 0.857 | 26.7
328 K | – | 17.06

N#C[N-]S(=O)(=O)C(F)(F)F.[Li+] + CCCC[N+]1(CCCC1)C.[N-](C#N)S(=O)(=O)C(F)(F)F
Settings | electrical conductivity, x1 = 0.05 [S/m] | electrical conductivity, x1 = 0.1 [S/m] | electrical conductivity, x1 = 0.2 [S/m] | viscosity, x1 = 0.05 [mPa·s] | viscosity, x1 = 0.1 [mPa·s] | viscosity, x1 = 0.2 [mPa·s]
298 K | 0.314 | 0.227 | 0.08 | 73 | 107.9 | 379
303 K | 0.372 | – | 0.101 | 62.2 | – | 312
308 K | 0.442 | 0.334 | 0.127 | 50.5 | 73 | 243
313 K | 0.523 | 0.401 | 0.156 | 42.4 | 60.7 | 191
318 K | 0.611 | 0.513 | – | 35.8 | 50.6 | –
323 K | – | – | 0.234 | – | – | 121.8
328 K | – | – | – | 23.6 | – | 99.9

CCCC[N+]1(C)CCCC1.N#C[N-]S(=O)(=O)C(F)(F)F + [Li+].[N-](C#N)S(=O)(=O)C(F)(F)F
x2 = 0
Settings | electrical conductivity [S/m] | viscosity [mPa·s]
298 K | 0.458 | 45.9
303 K | 0.546 | 40.4
318 K | 0.869 | 24.6
323 K | 1 | 21.5
328 K | – | 16.19
